Reference: US20250064889A1, “TRPV6 INHIBITORS AND COMBINATION THERAPIES FOR TREATING CANCERS” (Soricimed Biopharma Inc., priority 2017, published 2025)

How the values were obtained:
Human total Bel-2 = assay: Human Total Bcl-2 sandwich ELISA on BxPC-3 cells; assay type: cell-based; settings: 500 μM, at 96 hrs, p<0.05
Protocol: (§1) • Drug Dosing: Cells were plated at 5×10^5 cells/well in a 6-well plate. After 24 hrs incubation the BxPC-3 cells were dosed daily with NT (s.f. PBS) or 500 μM SOR-C13 (prepared fresh daily in f.s. PBS) for 72 hrs. Once dosed cells were incubated at 37° C./5% CO2 for the duration dosing period of 72 hrs. Dosing was repeated every 24 hrs for 72 hrs. Every 24 hrs protein lysates (RIPA) were prepared from cells and de-salted (7 kDa MWCO, Zebra spin columns, Fisher). Bel-2 assay was a 96 hrs dosing parameter. • Plate Assay (Calnr): Cellular Calcineurin concentration was monitored at 620 nm using the Calcineurin Cellular (PP2B) Phosphate Activity Assay kit (EMD Millipore). Results were interpolated from standard curve for amount of Phosphate released. • Plate Assay (Bcl-2): Human total Bel-2 concentration was performed using DuoSet® Human Total BcL-2 sandwich ELISA (R&D Systems). Bel-2 concentration for BxPC-3 cells was extrapolated from (4-PL) standard curve Bel-2.

[1] = Fu et al. 2017; cited from earlier work
MMP-9 = MMP-9 Cytoglow ELISA on BxPC-3 cells; assay type: cell-based; settings: BxPC-3 cells treated for 96 hr daily at 100 and 500 μM, p<0.05
Protocol: • Drug Dosing: BxPC-3 cells were plated at 2×10^4 cells/well in a 96-well plate and cultured overnight. Cells were dosed daily with NT (s.f. PBS) 100, 500 μM SOR-C13 (prepared fresh daily in f.s. PBS) for 96 hrs. Dosing was repeated every 24 hrs for 96 hrs. • Plate Assay: MMP-9 concentration was monitored using the MMP-9 Cytoglow ELISA (Assay Biotech). Cells were fixed to plate, and ELISA was performed, MMP-9 expression was calculated as % of No Treatment control.

calcineurin = assay: Calcineurin Cellular (PP2B) Phosphate Activity Assay on BxPC-3 cell lysates; assay type: cell-based; settings: 500 μM, at 24 hrs and 72 hrs, p<0.05
Protocol: as §1

[2] = test system: BxPC-3 pancreatic cancer cells; assay: Combination with immune checkpoint modulator: BxPC-3 cells co-incubated with activated Jurkat cells, viability and IL-2; assay type: cell-based; settings: BxPC-3 pre-treated with INF-γ, 100 μM SOR-C13 48 hours
Protocol: Experiments are performed to evaluate the effect of TRPV6 inhibitors in combination with immune checkpoint modulators such as PD-1 inhibitors (see Yang et al., Invest Ophthalmol Vis Sci. 2008 June; 49(6): 2518-2525; and FIG. 2). Briefly, BxPC-3 pancreatic cancer cells are treated with INF-γ for 48 hours to induce the cell surface expression of PD-L1. Once activated, sets of BxPC-3 cells are treated with 0 or 100 μM of SOR-C13 (KEFLHPSKVDLPR; SEQ ID NO:2) for 48 hours. Immune checkpoint modulatory test agents such as pembrolizumab (KEYTRUDA*) are added at various concentrations, along with activated Jurkat cells (i.e., cytotoxic T-cells), and co-incubated with the BxPC-3 cells for 48 hours.
Viability and IL-2 production is determined 48 hours later. Activated Jurkat cells produce IL-2 which mediates the killing of BxPC-3 cells. Cell death is quantified using the Cell Titre Glow Cellular Viability Assay. The effect of SOR-C13 on IL-2 mediated killing of BxPC-3 cells is compared to IL-2 mediated killing of BxPC-3 cells in the absence of SOR-C13.

[3] = test system: T-47D breast cancer cell lines; assay: RT-qPCR TaqMan Array, 187 gene panel, T-47D cells treated with SOR-C13; assay type: cell-based; settings: 500 μM for 120 hrs, genes with >1.5 fold change
Protocol: • mRNA Expression: The expression NFAT/Ca^2+ related genes mRNA levels were determined in 6 Cancer Cell lines treated with SOR-C13 (500 μM) for 120 hrs using a qPCR TaqMan® Array panel consisting of 187 genes (ThermoFisher). Cells were harvested with lysis buffer from the PureLink RNA Mini Kit and then RNA isolation carried out as per manufacturers instructions (ThermoFisher Scientific). RNA was quantified using the Qubit Fluorometer. Reverse Transcription was performed and cDNA created using SuperScript™ IV VILO Master Mix with ezDNase Enzyme (ThermoFisher Scientific). Each port of the Custom TaqMan® Array Card was loaded with 500 ng of cDNA and 1× TaqMan Fast Advanced Master Mix. RT-qPCR was performed using the Quantstudio™ 7Flex and analysis performed by ThermoFisher cloud software using GUSB and HRPT1 as endogenous controls.

[4] = test system: NFAT signalling molecular pathway targets (Calnr, Bel-2, ATX, MMP-9 and NFAT); assay: In vitro dosing experiments, NFAT signalling molecular pathway targets (summary); assay type: cell-based
Protocol: (§2) • Transfection: T-47D cells were plated at 1×10^4 cells/well in a 96-well plate and cultured overnight. Cells were transfected for 24 hrs at 37° C./5% CO2 using Liptofectamine 3000 (0.3 μL/well)/P3000 Reagent (1 μL/well) in Opti-MEM medium and with a 500 ng of NFAT dual reporter plasmid (Cignal NFAT Reporter, Qiagen). • Drug Dosing: After transfection the T-47D cells were dosed daily with NT (s.f. PBS) or 500 μM SOR-C13 (prepared fresh daily in f.s. PBS) for 72 hrs. Once dosed the 96-well plate was incubated at 37° C./5% CO2 for the duration dosing period of 72 hrs. Dosing was repeated every 24 hrs for 72 hrs. • Plate Assay: Luminescence was monitored using Dual-Glo® Luciferase assay (Promega) to measure changes in NFAT luminescence expression (related to pKC pathway) between PBS and SOR-C13 treated T-47D cells. Firefly and Renilla Luminescence was measured using a molecular devices microplate reader.
• Drug Dosing: Cells were plated at 5×10^5 cells/well in a 6-well plate. After 24 hrs incubation the BxPC-3 cells were dosed daily with NT (s.f. PBS) or 500 μM SOR-C13 (prepared fresh daily in f.s. PBS) for 72 hrs. […] Bel-2 assay was a 96 hrs dosing parameter. • Plate Assay (Calnr): Cellular Calcineurin concentration was monitored at 620 nm using the Calcineurin Cellular (PP2B) Phosphate Activity Assay kit (EMD Millipore). […]

NFAT activation = assay: In vitro NFAT analysis: NFAT dual reporter luciferase assay in T-47D cells; assay type: cell-based; settings: 500 μM daily for 72 hrs, p<0.05
Protocol: as §2

## KEFLHPSKVDLPR [SOR-C13]
Human total Bel-2
  Bel-2 expression: significant decrease
[1]
  anti-tumour activity: promising anti-tumour activity
  tolerability and safety profile: good tolerability and manageable safety profile
MMP-9
  MMP-9 expression, % from PBS control: reduction
calcineurin
  calcineurin activity: inhibition
[2]
  anti-cancer activity of immune checkpoint modulators such as pembrolizumab on addition of SOR-C13: increases
[3]
  NFATC1, MMP2, GSK3 and RCAN1 mRNA expression (Calcineurin/NFAT pathway): affected
[4]
  NFAT signalling molecular pathway targets (Calnr, Bel-2, ATX, MMP-9 and NFAT) with treatment: decreases
NFAT activation
  NFAT activation, SOR-C13-treated cells vs. PBS: significant difference
